From US4032641A, “Nicotinoyl carnitine derivatives” (Tanabe Seiyaku Co., Ltd., priority 1976, dated 1977)
Counter-ions that a name gives are not always drawn.

Tests used:
[1] = tested on: Serum triglyceride; experiment: Experiment I: serum-triglyceride after oral administration to fasted rats; assay type: in vivo, rat; settings: 1 mmol/kg, rats about 290 g, mean
Protocol: (§1) Test compounds are administered orally to groups of 5 rats (body weight: about 290 g) which fasted overnight. Blood samples were collected from the tail vein at intervals. Blood free fatty acid, serum-triglyceride and serum-cholesterol were determined, respectively.

[2] = tested on: Blood-free fatty acids; experiment: Experiment I: blood free fatty acid after oral administration to fasted rats; assay type: in vivo, rat; settings: 1 mmol/kg, mean
Protocol: as §1

[3] = tested on: Serum-cholesterol; experiment: Experiment I: serum-cholesterol after oral administration to fasted rats; assay type: in vivo, rat; settings: 1 mmol/kg, mean
Protocol: as §1

[4] = tested on: Serum-triglyceride; experiment: Experiment II: serum-triglyceride after oral administration to fasted rats; assay type: in vivo, rat; settings: 1 mmol/kg, rats about 170 g, mean ± standard error
Protocol: Test compounds were administered orally to groups of 5 rats (body weight: about 170 g) which fasted overnight. Blood samples were collected from the tail vain at intervals, and serum-triglyceride was determined.

[5] = Experiment III: acute toxicity, oral, SD-strain male rats (Van der Waerden's Method); settings: rat, in vivo
Protocol: (§2) Test compounds were administered orally to ddY male mice or SD-strain male rats. Seventy-two hours after the administration, 50% lethal dose of the test compounds were estimated in accordance with Van der Waerden's Method.

[6] = Experiment III: acute toxicity, oral, ddY male mice (Van der Waerden's Method); settings: mouse, in vivo, ddY-strain male mice
Protocol: as §2

[7] = tested on: cholesterol and triglyceride levels in plasma; settings: literature; cited from earlier work
[8] = use as hypolipidemic agent; known; cited from earlier work
[9] = 6 hrs after oral administration
[10] = 10 hrs after oral administration
[11] = 0 hrs after oral administration
[12] = 2 hrs after oral administration
[13] = 12 hrs after oral administration

Row | Structure (SMILES) | Serum triglyceride [1, 9] | Serum triglyceride [1, 10] | Blood-free fatty acids [2, 11] | Blood-free fatty acids [2, 12] | Blood-free fatty acids [2, 9] | Blood-free fatty acids [2, 10] | Serum-cholesterol [3, 9] | Serum-cholesterol [3, 10] | Serum-triglyceride [4, 9] | Serum-triglyceride [4, 13] | LD50 at 72 h [5] | LD50 at 72 h [6] | cholesterol and triglyceride levels in plasma [7] | side effects [8]
1 | CCOC(=O)CC(C[N+](C)(C)C)OC(=O)c1cccnc1 (stereo not shown) [A, Nicotinoyl carnitine ethyl ester nitrate . HNO3] | 12 mg/dL | 16 mg/dL | 52 μ moles/dl | 27 μ moles/dl | 29 μ moles/dl | 65 μ moles/dl | 55 mg/dL | 50 mg/dL | – | – | – | – | – | –
2 | CCOC(=O)CC(C[N+](C)(C)C)OC(=O)c1cccnc1 (stereo not shown) [B, Nicotinoyl carnitine ethyl ester chloride. H2 O] | – | – | – | – | – | – | – | – | 13 ± 5 mg/dL | 13 ± 4 mg/dL | 6900 mg/kg | 5900 mg/kg | – | –
3 | C[N+](C)(C)CC(CC(=O)OCc1ccccc1)OC(=O)c1cccnc1 (stereo not shown) [C, Nicotinoyl carnitine benzyl ester chloride] | – | – | – | – | – | – | – | – | 10 ± 1 mg/dL | 23 ± 3 mg/dL | – | – | – | –
4 | C[N+](C)(C)CC(CC(N)=O)OC(=O)c1cccnc1 (stereo not shown) [D, Nicotinoyl carnitine amide chloride . HCl] | – | – | – | – | – | – | – | – | – | – | > 7000 mg/kg | > 7200 mg/kg | – | –
5 | O=C(O)c1cccnc1 [Nicotinic acid, nicotinic acid, reference compound] | 22 mg/dL | 27 mg/dL | 38 μ moles/dl | 22 μ moles/dl | 60 μ moles/dl | 66 μ moles/dl | 74 mg/dL | 70 mg/dL | 28 ± 7 mg/dL | 34 ± 5 mg/dL | – | – | can be decreased | undesirable side effects such as facial skin flush and itching
